The source made the active and inactive calls. No rule for the calls is given here.
System: CCRIS mutagenicity, Ames/micronucleus/aberration tests
Assay: CCRIS mutagenicity studies

Measured: mutagenic call

NCc1cccc(CN)c1
inactive: Test System: AMES SALMONELLA TYPHIMURIUM, Strain/Indicator: TA98, Metabolic Activation: HAMSTER, LIVER, S-9, AROCLOR 1254, Method: STANDARD PLATE inactive; negative | Test System: AMES SALMONELLA TYPHIMURIUM, Strain/Indicator: TA98, Metabolic Activation: NONE, Method: PREINCUBATION inactive; negative | Test System: AMES SALMONELLA TYPHIMURIUM, Strain/Indicator: TA98, Metabolic Activation: NONE, Method: STANDARD PLATE inactive; negative | Test System: AMES SALMONELLA TYPHIMURIUM, Strain/Indicator: TA98, Metabolic Activation: RAT, LIVER, S-9, AROCLOR 1254, Method: STANDARD PLATE inactive; negative | Test System: AMES SALMONELLA TYPHIMURIUM, Strain/Indicator: TA98, Metabolic Activation: RAT, LIVER, S-9, PCB, Method: PREINCUBATION inactive; negative | Test System: AMES SALMONELLA TYPHIMURIUM, Strain/Indicator: TA98, Metabolic Activation: RAT, LIVER, S-9, PHENOBARBITAL AND BETA-NAPHTHOFLAVONE, Method: PREINCUBATION inactive; negative | Test System: AMES SALMONELLA TYPHIMURIUM, Strain/Indicator: TA100, Metabolic Activation: HAMSTER, LIVER, S-9, AROCLOR 1254, Method: STANDARD PLATE inactive; negative | Test System: AMES SALMONELLA TYPHIMURIUM, Strain/Indicator: TA100, Metabolic Activation: NONE, Method: PREINCUBATION inactive; negative | Test System: AMES SALMONELLA TYPHIMURIUM, Strain/Indicator: TA100, Metabolic Activation: NONE, Method: STANDARD PLATE inactive; negative | Test System: AMES SALMONELLA TYPHIMURIUM, Strain/Indicator: TA100, Metabolic Activation: RAT, LIVER, S-9, AROCLOR 1254, Method: STANDARD PLATE inactive; negative | Test System: AMES SALMONELLA TYPHIMURIUM, Strain/Indicator: TA100, Metabolic Activation: RAT, LIVER, S-9, PCB, Method: PREINCUBATION inactive; negative | Test System: AMES SALMONELLA TYPHIMURIUM, Strain/Indicator: TA100, Metabolic Activation: RAT, LIVER, S-9, PHENOBARBITAL AND BETA-NAPHTHOFLAVONE, Method: PREINCUBATION inactive; negative | Test System: AMES SALMONELLA TYPHIMURIUM, Strain/Indicator: TA102, Metabolic Activation: NONE, Method: PREINCUBATION inactive; negative | Test System: AMES SALMONELLA TYPHIMURIUM, Strain/Indicator: TA102, Metabolic Activation: RAT, LIVER, S-9, SODIUM PHENOBARBITAL AND 5,6-BENZOFLAVONE, Method: PREINCUBATION inactive; negative | Test System: AMES SALMONELLA TYPHIMURIUM, Strain/Indicator: TA104, Metabolic Activation: NONE, Method: PREINCUBATION inactive; negative | Test System: AMES SALMONELLA TYPHIMURIUM, Strain/Indicator: TA104, Metabolic Activation: RAT, LIVER, S-9, SODIUM PHENOBARBITAL AND 5,6-BENZOFLAVONE, Method: PREINCUBATION inactive; negative | Test System: AMES SALMONELLA TYPHIMURIUM, Strain/Indicator: TA1535, Metabolic Activation: HAMSTER, LIVER, S-9, AROCLOR 1254, Method: STANDARD PLATE inactive; negative | Test System: AMES SALMONELLA TYPHIMURIUM, Strain/Indicator: TA1535, Metabolic Activation: NONE, Method: PREINCUBATION inactive; negative | Test System: AMES SALMONELLA TYPHIMURIUM, Strain/Indicator: TA1535, Metabolic Activation: NONE, Method: STANDARD PLATE inactive; negative | Test System: AMES SALMONELLA TYPHIMURIUM, Strain/Indicator: TA1535, Metabolic Activation: RAT, LIVER, S-9, AROCLOR 1254, Method: STANDARD PLATE inactive; negative | Test System: AMES SALMONELLA TYPHIMURIUM, Strain/Indicator: TA1535, Metabolic Activation: RAT, LIVER, S-9, PHENOBARBITAL AND BETA-NAPHTHOFLAVONE, Method: PREINCUBATION inactive; negative | Test System: AMES SALMONELLA TYPHIMURIUM, Strain/Indicator: TA1537, Metabolic Activation: HAMSTER, LIVER, S-9, AROCLOR 1254, Method: STANDARD PLATE inactive; negative | Test System: AMES SALMONELLA TYPHIMURIUM, Strain/Indicator: TA1537, Metabolic Activation: NONE, Method: PREINCUBATION inactive; negative | Test System: AMES SALMONELLA TYPHIMURIUM, Strain/Indicator: TA1537, Metabolic Activation: NONE, Method: STANDARD PLATE inactive; negative | Test System: AMES SALMONELLA TYPHIMURIUM, Strain/Indicator: TA1537, Metabolic Activation: RAT, LIVER, S-9, AROCLOR 1254, Method: STANDARD PLATE inactive; negative | Test System: AMES SALMONELLA TYPHIMURIUM, Strain/Indicator: TA1537, Metabolic Activation: RAT, LIVER, S-9, PHENOBARBITAL AND BETA-NAPHTHOFLAVONE, Method: PREINCUBATION inactive; negative | Test System: AMES SALMONELLA TYPHIMURIUM, Strain/Indicator: TA1538, Metabolic Activation: HAMSTER, LIVER, S-9, AROCLOR 1254, Method: STANDARD PLATE inactive; negative | Test System: AMES SALMONELLA TYPHIMURIUM, Strain/Indicator: TA1538, Metabolic Activation: NONE, Method: STANDARD PLATE inactive; negative | Test System: AMES SALMONELLA TYPHIMURIUM, Strain/Indicator: TA1538, Metabolic Activation: RAT, LIVER, S-9, AROCLOR 1254, Method: STANDARD PLATE inactive; negative | Test System: E. COLI, Strain/Indicator: WP2UVRA/PKM101, Metabolic Activation: NONE, Method: PREINCUBATION inactive; negative | Test System: E. COLI, Strain/Indicator: WP2UVRA/PKM101, Metabolic Activation: RAT, LIVER, S-9, PHENOBARBITAL AND BETA-NAPHTHOFLAVONE, Method: PREINCUBATION inactive; negative | Test System: E. COLI, Strain/Indicator: WP2UVRA/PKM101, Metabolic Activation: RAT, LIVER, S-9, SODIUM PHENOBARBITAL AND 5,6-BENZOFLAVONE, Method: PREINCUBATION inactive; negative | Test System: E. COLI, Strain/Indicator: WP2UVRA, Metabolic Activation: NONE, Method: PREINCUBATION inactive; negative | Test System: E. COLI, Strain/Indicator: WP2UVRA, Metabolic Activation: RAT, LIVER, S-9, PHENOBARBITAL AND BETA-NAPHTHOFLAVONE, Method: PREINCUBATION inactive; negative | Test System: E. COLI, Strain/Indicator: WP2UVRA, Metabolic Activation: RAT, LIVER, S-9, SODIUM PHENOBARBITAL AND 5,6-BENZOFLAVONE, Method: PREINCUBATION inactive; negative | Test System: MOUSE LYMPHOMA, Strain/Indicator: L5178Y (TK+/TK-), Metabolic Activation: NONE, Method: SUSPENSION/PLATE inactive; negative. reevaluation of results: negative | Test System: MOUSE LYMPHOMA, Strain/Indicator: L5178Y (TK+/TK-), Metabolic Activation: RAT, LIVER, S-9, AROCLOR 1254, Method: SUSPENSION/PLATE inactive; negative. reevaluation of results: negative

O=c1c(-c2ccc(O)cc2)coc2cc(O)cc(O)c12
inactive: End Point: IN VIVO CHROMOSOMAL ABERRATIONS, Test System: MAMMARY GLAND CELLS, USING DUAL PROBE FISH, Species: RAT, Strain/Sex: SPRAGUE-DAWLEY/FEMALE, Route: DIET inactive; negative | End Point: IN VIVO MICRONUCLEUS, Test System: MAMMARY GLAND CELLS, Species: RAT, Strain/Sex: SPRAGUE-DAWLEY/FEMALE, Route: DIET inactive; negative | End Point: MORPHOLOGICAL TRANSFORMATION, Test System: SYRIAN HAMSTER EMBRYO CELLS (SHE), Metabolic Activation: NONE inactive; negative
active: End Point: IN VITRO CHROMOSOMAL ABERRATIONS, Test System: HUMAN PERIPHERAL LYMPHOCYTES, Metabolic Activation: NONE active; positive (structural changes) | End Point: IN VITRO MICRONUCLEUS, Test System: CHINESE HAMSTER V79 CELLS, Metabolic Activation: NONE active; positive | End Point: IN VITRO MICRONUCLEUS, Test System: MOUSE LYMPHOMA L5178Y CELLS, Metabolic Activation: NONE active; positive | Test System: CHINESE HAMSTER V-79, Strain/Indicator: V-79 (HPRT)/6-THIOGUANINE, Metabolic Activation: NONE active; positive | Test System: MOUSE LYMPHOMA, Strain/Indicator: L5178Y TK+/-, Metabolic Activation: NONE active; positive (above 90 umol/l) | Test System: MOUSE LYMPHOMA, Strain/Indicator: L5178Y TK+/-, Metabolic Activation: S-9 active; positive | Test System: SYRIAN HAMSTER EMBRYO CELLS, Strain/Indicator: HPRT/6-THIOGUANINE, Metabolic Activation: NONE, Method: PLATE active; positive
